Drawing on the NIST ThermoML archive (doi:10.1021/je900436f), this text covers mass density for four molecules.

As a reminder, the mass density is mass per unit of volume.

Each structure is given as a SMILES string. Numbers after ± are expanded uncertainties.

The conditions of this data set: 298.15 K, Liquid.

Turning to `CCCCCl` [1-chlorobutane], for the setting “13.52 kPa”, the mass density worked out at 880.805 ± 0.6 kg/m3.
Turning to `CC(C)(C)O` [2-methylpropan-2-ol], the mass density (5.605 kPa) is listed as 780.885 ± 0.75 kg/m3.
On to `CC(C)CO` [2-methyl-1-propanol], for which, under “1.535 kPa”, the mass density is listed as 797.775 ± 0.6 kg/m3.
As for `CCCCCC` [hexane], where the note is “20.22 kPa”, the mass density came out at 654.96 ± 1.4 kg/m3.
